Test [1] has as its target T1, Beta-secretase 1 (Homo sapiens, UniProt P56817). Nature of the test: Inhibition of human BACE1 at 2 uM by FRET assay.
Test [2] addresses T1, Beta-secretase 1. Nature of the test: Inhibition of human BACE1 at 0.2 uM by FRET assay.
Test [3] concerns the target T1, Beta-secretase 1. Nature of the test: Inhibition of human BACE1 by FRET assay.

SMILES strings stand for the structures.

T1 sequence (P56817 whole entry): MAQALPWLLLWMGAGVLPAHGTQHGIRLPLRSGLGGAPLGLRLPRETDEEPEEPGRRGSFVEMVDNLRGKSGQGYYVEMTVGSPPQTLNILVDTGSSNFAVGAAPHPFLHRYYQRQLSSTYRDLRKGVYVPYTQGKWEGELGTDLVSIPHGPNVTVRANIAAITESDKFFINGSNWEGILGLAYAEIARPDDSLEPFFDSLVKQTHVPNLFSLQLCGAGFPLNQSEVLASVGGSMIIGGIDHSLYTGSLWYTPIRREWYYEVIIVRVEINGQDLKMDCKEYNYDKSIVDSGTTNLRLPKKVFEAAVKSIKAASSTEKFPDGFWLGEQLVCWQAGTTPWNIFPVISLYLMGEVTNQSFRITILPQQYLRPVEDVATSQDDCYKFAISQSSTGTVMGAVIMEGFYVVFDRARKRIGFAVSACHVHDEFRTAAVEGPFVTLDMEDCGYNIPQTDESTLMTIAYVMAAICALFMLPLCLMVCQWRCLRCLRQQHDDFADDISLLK

Regarding `CC(C)C[C@H](NC(=O)[C@@H](NC(=O)[C@@H](N)CNC(=O)c1nn[nH]n1)C(C)C)C(=O)N[C@@H](Cc1ccccc1)[C@@H](O)C(=O)Nc1cccc(-c2nn[nH]n2)c1`, on Beta-secretase 1 [1], the inhibition is above 99%.
As for `CC(C)C[C@H](NC(=O)[C@@H](NC(=O)[C@@H](N)CNC(=O)c1nc[nH]n1)C(C)C)C(=O)N[C@@H](Cc1ccccc1)[C@@H](O)C(=O)Nc1cccc(-c2nn[nH]n2)c1`, the inhibition on Beta-secretase 1 [1] came out at 91%; on Beta-secretase 1 [2], 58%.
Taken in the same sequence, the figures for `CC(C)C[C@H](NC(=O)[C@@H](NC(=O)[C@@H](N)CNC(=O)c1cc(O)ccc1O)C(C)C)C(=O)N[C@@H](Cc1ccccc1)[C@@H](O)C(=O)Nc1cccc(-c2noc(=S)[nH]2)c1` were above 99% and 93%.
With `CC(C)C[C@H](NC(=O)[C@@H](NC(=O)[C@@H](N)CNC(=O)c1[nH]c(=O)[nH]c(=O)c1F)C(C)C)C(=O)N[C@@H](Cc1ccccc1)[C@@H](O)C(=O)Nc1cccc(-c2noc(=S)[nH]2)c1`, the results for the inhibition against Beta-secretase 1 [1] and against Beta-secretase 1 [2] were above 99% and 95%, respectively. On Beta-secretase 1 [3], this compound came in with an IC50 of 10.2 nM.
For the compound `CC(C)C[C@H](NC(=O)[C@@H](NC(=O)[C@@H](N)CNC(=O)c1cc(O)ccc1O)C(C)C)C(=O)N[C@@H](Cc1ccccc1)[C@@H](O)C(=O)Nc1cccc(-c2nc(=S)o[nH]2)c1`, at Beta-secretase 1 [3], half-maximal inhibition (IC50) required 10.6 nM.
In the case of `CC(C)C[C@H](NC(=O)[C@@H](NC(=O)[C@@H](N)CNC(=O)c1cc(O)ccc1O)C(C)C)C(=O)N[C@@H](Cc1ccccc1)[C@@H](O)C(=O)Nc1cccc(-c2noc(=O)[nH]2)c1`, the inhibition at Beta-secretase 1 [1] is above 99%; at Beta-secretase 1 [2], 92%.
For the compound `CC(C)C[C@H](NC(=O)[C@@H](NC(=O)[C@@H](N)CNC(=O)c1cc(O)ccc1O)C(C)C)C(=O)N[C@@H](Cc1ccccc1)[C@@H](O)C(=O)Nc1cccc(-c2nc(=O)o[nH]2)c1`, the IC50 on Beta-secretase 1 [3] is 10 nM.
Turning to `CC(C)C[C@H](NC(=O)[C@@H](NC(=O)[C@@H](N)CNC(=O)c1[nH]c(=O)[nH]c(=O)c1F)C(C)C)C(=O)N[C@@H](Cc1ccccc1)[C@@H](O)C(=O)Nc1cccc(-c2nn[nH]n2)c1`, the inhibition against Beta-secretase 1 [1] was above 99%.
Same read-out and setting: in the case of `CC(C)[C@H](NC(=O)[C@@H](N)CNC(=O)c1[nH]c(=O)[nH]c(=O)c1F)C(=O)N[C@@H](CC1CCCCC1)C(=O)N[C@@H](Cc1ccccc1)[C@@H](O)C(=O)Nc1cccc(-c2nn[nH]n2)c1` it was above 99%.
With `CC(C)C[C@H](NC(=O)[C@@H](NC(=O)[C@@H](N)CNC(=O)c1[nH]c(=O)[nH]c(=O)c1F)C(C)C)C(=O)N[C@@H](Cc1ccccc1)[C@@H](O)C(=O)Nc1cccc(-c2n[nH]c(=S)o2)c1`, the inhibition was above 99% on Beta-secretase 1 [1] and 95% at Beta-secretase 1 [2].
In the same order, the values of `CC(C)[C@H](NC(=O)[C@@H](N)CNC(=O)c1nc[nH]n1)C(=O)N[C@@H](CC1CCCCC1)C(=O)N[C@@H](Cc1ccccc1)[C@@H](O)C(=O)Nc1cccc(-c2nn[nH]n2)c1` are 94% and 69%.
In the same order, the values of `CC(C)C[C@H](NC(=O)[C@@H](NC(=O)[C@@H](N)CNC(=O)c1cc(O)ccc1O)C(C)C)C(=O)N[C@@H](Cc1ccccc1)[C@@H](O)C(=O)Nc1cccc(-c2nsc(=O)[nH]2)c1` are 99% and 92%.
Taken in the same sequence, the figures for `CC(C)C[C@H](NC(=O)[C@@H](NC(=O)[C@@H](N)CNC(=O)c1[nH]c(=O)[nH]c(=O)c1F)C(C)C)C(=O)N[C@@H](Cc1ccccc1)[C@@H](O)C(=O)Nc1cccc(-c2nsc(=O)[nH]2)c1` were 99% and 93%.
Take `CC(C)[C@H](NC(=O)[C@@H](N)CNC(=O)c1c[nH]cn1)C(=O)N[C@@H](CC1CCCCC1)C(=O)N[C@@H](Cc1ccccc1)[C@@H](O)C(=O)Nc1cccc(-c2nn[nH]n2)c1`: the inhibition on Beta-secretase 1 [1] amounted to 83%; at Beta-secretase 1 [2], 45%.
As to `CC(C)C[C@H](NC(=O)[C@@H](NC(=O)[C@@H](N)CNC(=O)c1c[nH]cn1)C(C)C)C(=O)N[C@@H](Cc1ccccc1)[C@@H](O)C(=O)Nc1cccc(-c2nn[nH]n2)c1`, the results for the inhibition on Beta-secretase 1 [1] and against Beta-secretase 1 [2] were 87% and 50%, respectively.
Taken in the same sequence, the figures for `CC(C)C[C@H](NC(=O)[C@@H](NC(=O)[C@@H](N)CNC(=O)c1[nH]c(=O)[nH]c(=O)c1F)C(C)C)C(=O)N[C@@H](Cc1ccccc1)[C@@H](O)C(=O)Nc1cccc(-c2n[nH]c(=S)n2C)c1` were 99% and 92%.
Taken in the same sequence, the figures for `CC(C)C[C@H](NC(=O)[C@@H](NC(=O)[C@@H](N)CNC(=O)c1cc(O)ccc1O)C(C)C)C(=O)N[C@@H](Cc1ccccc1)[C@@H](O)C(=O)Nc1cccc(-c2n[nH]c(=S)n2C)c1` were 94% and 64%.
Take `CC(C)C[C@H](NC(=O)[C@@H](NC(=O)[C@@H](N)CNC(=O)c1cc(O)ccc1O)C(C)C)C(=O)N[C@@H](Cc1ccccc1)[C@@H](O)C(=O)Nc1cccc(-c2n[nH]c(=S)o2)c1`: the inhibition was determined as 99% at Beta-secretase 1 [1] and 89% against Beta-secretase 1 [2].
At Beta-secretase 1 [1], `CC(C)[C@H](NC(=O)[C@@H](N)CNC(=O)c1nn[nH]n1)C(=O)N[C@@H](CC1CCCCC1)C(=O)N[C@@H](Cc1ccccc1)[C@@H](O)C(=O)Nc1cccc(-c2nn[nH]n2)c1` showed an inhibition above 99%.
Take `CC(C)C[C@H](NC(=O)[C@@H](NC(=O)[C@@H](N)CNC(=O)c1[nH]c(=O)[nH]c(=O)c1F)C(C)C)C(=O)N[C@@H](Cc1ccccc1)[C@@H](O)C(=O)Nc1cccc(-c2noc(=O)[nH]2)c1`: the inhibition was above 99% against Beta-secretase 1 [1] and 96% on Beta-secretase 1 [2]. Further, the IC50 at Beta-secretase 1 [3] amounted to 7.9 nM.

As a reminder, the inhibition is the share of the control response that was lost under treatment. Lower therefore signals a weak effect. The term IC50 denotes the midpoint of a concentration-inhibition curve.

(Values after ChEMBL document CHEMBL1158556, “Design of pentapeptidic BACE1 inhibitors with carboxylic acid bioisosteres at P1' and P4 positions” (Bioorg Med Chem, 2010).)
